# Source: patent US11040082B2, “Compositions and methods for treating colorectal cancer” (Georgia State University Research Foundation, Inc., priority 2014, dated 2021)
# T1: PepT1 (Homo sapiens, UniProt P46059)
# T1 construct: endogenous in cells; host or cells: Caco-2/BBE cells
# T1 sequence (P46059 1-708): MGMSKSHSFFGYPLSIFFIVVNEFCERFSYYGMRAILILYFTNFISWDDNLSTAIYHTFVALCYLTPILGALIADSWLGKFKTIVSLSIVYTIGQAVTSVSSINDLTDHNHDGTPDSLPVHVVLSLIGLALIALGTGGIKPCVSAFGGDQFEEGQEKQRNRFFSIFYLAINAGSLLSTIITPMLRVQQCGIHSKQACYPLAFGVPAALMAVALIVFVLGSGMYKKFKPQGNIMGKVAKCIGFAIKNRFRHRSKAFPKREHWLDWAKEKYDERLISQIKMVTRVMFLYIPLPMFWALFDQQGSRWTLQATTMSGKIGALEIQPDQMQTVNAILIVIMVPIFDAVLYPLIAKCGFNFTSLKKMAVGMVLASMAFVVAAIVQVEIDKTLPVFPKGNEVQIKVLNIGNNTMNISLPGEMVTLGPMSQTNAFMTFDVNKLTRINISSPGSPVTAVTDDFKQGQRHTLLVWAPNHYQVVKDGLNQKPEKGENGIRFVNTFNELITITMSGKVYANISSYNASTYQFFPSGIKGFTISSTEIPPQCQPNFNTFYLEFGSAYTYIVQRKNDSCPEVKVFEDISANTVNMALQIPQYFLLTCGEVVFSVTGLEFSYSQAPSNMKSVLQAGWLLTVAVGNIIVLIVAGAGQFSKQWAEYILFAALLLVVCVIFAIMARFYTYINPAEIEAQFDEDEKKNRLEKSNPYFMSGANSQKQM
# What was measured:
# [1] = test system: AOM/DSS-induced colon tumorigenesis in PepT1-KO mice; assay: AOM/DSS-induced colitis-associated cancer model, PepT1-KO mice, with or without KPV; format: in vivo, mouse; details: AOM 15 mg/kg, 3% DSS, + KPV vs AOM/DSS only
# Experimental: (§1) Colonic tumor model: Colon cancer was induced as previously described with some modifications (Greten et al., Cell 118:285-96, 2004). Mice were intraperitoneally injected with AOM (Sigma-Aldrich, St. Louis, Mo.) diluted in PBS (10 mg/kg) and maintained on a regular diet and water for 5 days. The mice were then subjected to two cycles of DSS treatment (MP Biomedicals, Solon, Ohio, USA), with each cycle consisting of 2.5% DSS for 7 days followed by a 14-day recovery period with regular water. Mice were then sacrificed and their colons isolated for further experimentation. Colonic tumors were counted and measured using a dissecting microscope. The total sum of the area of each colon covered by tumor tissue was expressed as the tumor burden index.
# (§2) In experiments designed to test the efficacy of KPV (Biopeptide Co. Inc., San Diego, Calif.), the above protocol was slightly modified. Five days after AOM injections (10 mg/kg to WT mice or 15 mg/kg to PepT1-KO mice), the WT and PepT1-KO mice were given 3% DSS with or without KPV for seven days. Following the 7-day treatment, the mice were given normal drinking water for 14 days, then 2.5% DSS (WT) or 3% DSS (PepT1-KO mice) with or without KPV for seven days. Following the 7-day treatment, the mice were given normal drinking water for 14 days. The KPV-treated group received 100 μM KPV in their drinking water along with the DSS during both DSS cycles.
# (§3) Therefore, we hypothesized that KPV may help prevent colon tumorigenesis in the AOM/DSS-induced CAC model. To test this hypothesis, WT mice were treated with AOM/DSS or AOM/DSS+KPV (during the DSS cycles). […] In order to investigate any putative protective effect of KPV administration in pepT1-KO mice, the colitis-associated cancer protocol was slightly modified based on the relatively low penetrance of the disease in pepT1-deficient animals (FIG. 3). AOM concentration was increased to 15 mg/kg and DSS was increased to 3% in order to favor tumor development. […] Upregulation of colonic PepT1 may lead to increased interactions between bacterial peptides and intracellular innate immune receptors, including NOD receptors, thus triggering downstream activation of proinflammatory signaling pathways (Dalmasso et. al., Gastroenterology 141:1334-45, 2011; Laroui et al., J. Biol. Chem. 286:31003-13, 2011). Furthermore, previous studies have shown that bacteria are required for the initiation of colonic inflammation and subsequent dysplasia and tumorigenesis (Itzkowitz and Yio, Am. J. Physiol. Gastrointest. Liver Physiol. 287:G7-17, 2004). Future studies are warranted to assess the role of PepT1-bacterial interactions in these processes, and whether such interactions contribute to the progression of CAC.
# PepT1 = biological target: T1, PepT1; details: in vitro, Caco-2/BBE cells; cited from earlier work
# [2] = test system: Caco2-BBE and Jurkat cells; details: stimulation with pro-inflammatory cytokines, co-treated with KPV; cited from earlier work
# [3] = test system: AOM/DSS-induced colon tumorigenesis; assay: AOM/DSS-induced colitis-associated cancer (CAC) model, WT mice, with or without KPV; format: in vivo, mouse
# Experimental: as §1, §2
# H&E Staining of Colonic Tissue: Mouse colons were fixed in 10%-buffered formalin for 24 hours at room temperature and then embedded in paraffin. Tissues were sectioned at 5-μm thickness and stained with hematoxylin & eosin (H&E) using standard protocols. Images were acquired using an Olympus microscope equipped with a DP-23 digital camera.
# Immunohistochemistry: Mouse colonic tissues were fixed in formalin and paraffin-embedded. For Ki67, β-catenin and PepT1 staining, sections were deparaffinized. Slides were incubated in sodium citrate buffer (pH 6.0) and cooked in a pressure cooker for 10 minutes for antigen retrieval. Sections were then blocked with 5% goat serum in TBS followed by incubation for one hour with anti-Ki67 (1:100, Vector Laboratories, Burlingame, Calif.), anti-β-catenin (1:1000, Cell Signaling, Danvers, Mass.) or anti-mPepT1 at 37° C. After washing with TBS, sections were treated with appropriate biotinylated secondary antibodies for 30 minutes at 37° C., and color development was performed using the Vectastain ABC kit (Vector Laboratories). Sections were then counterstained with hematoxylin, dehydrated, and then coverslipped. Images were acquired using an Olympus microscope equipped with DP-23 Digital camera. Ki67-positive cells were counted per crypt.
# as §3, with “Future studies are warranted to assess the role of PepT1-bacterial interactions in these processes, and whether such interactions contribute to the progression of CAC.” left out
# DSS-induced colitis = details: previous studies; cited from earlier work
# [4] = test system: myeloid leukemia C1498 cells; details: in vivo; cited from earlier work
# colon adenocarcinoma = details: cited from earlier work
# tumor growth = details: several studies; cited from earlier work
# [5] = test system: PepT1 expression and colitis in IL-10-/- mice; details: compared to vehicle-treated; cited from earlier work
# [6] = test system: tumorigenesis in IL-10-deficient mice; details: even after colitis had developed; cited from earlier work
# [7] = AOM/DSS + 100 μM KPV in drinking water during both DSS cycles vs AOM/DSS only
# [8] = AOM/DSS + 100 μM KPV vs AOM/DSS only
molecule,measurement,setting,value
Lys-Pro-Val [KPV],protection from tumorigenesis,[1],not protected from tumorigenesis
same,tumor burden,[1],remained unchanged
same,tumor numbers,[1],remained unchanged
same,tumor sizes,[1],remained unchanged
same,transport via PepT1,PepT1,transported via PepT1
same,NF-κB activation,[2],attenuated NF-κB activation
same,pro-inflammatory cytokine production,[2],decreased pro-inflammatory cytokine production
same,colon tumorigenesis: overall colonic tumor burden,[3]; [7],drastic decreases
same,colon tumorigenesis: tumor numbers,[3]; [7],drastic decreases
same,colon tumorigenesis: tumor sizes,[3]; [7],drastic decreases
same,aberrant crypt foci (H&E-stained colonic sections),[3]; [8],fewer aberrant crypt foci
same,body weight loss during DSS treatment,[3]; [8],lost similar amounts of weight
same,cellular infiltration (H&E-stained colonic sections),[3]; [8],decreased cellular infiltration
same,epithelial cell proliferation (Ki67+ cells/crypt),[3]; [8],less epithelial cell proliferation
same,inflammation (H&E-stained colonic sections),[3]; [8],decreased inflammation
same,inflammation and DSS-induced colitis,DSS-induced colitis,decreases inflammation and attenuates DSS-induced colitis
CC(C)C[C@H](NC(=O)[C@@H](O)[C@H](N)Cc1ccccc1)C(=O)O [bestatin],growth of myeloid leukemia C1498 cells,[4],decreases the growth
same,growth of colon adenocarcinoma,colon adenocarcinoma,inhibits the growth of colon adenocarcinoma
same,cell proliferation,tumor growth,decreases cell proliferation
same,tumor growth,tumor growth,ameliorates tumor growth
Lactobacillus plantarum,PepT1 expression and activity,[5],reduced PepT1 expression and activity
same,colitis,[5],attenuated colitis
"IL-10: exogenous anti-inflammatory cytokine IL-10 administered to IL-10-deficient mice (protein, UniProt P18893 19-178, looked up) Interleukin-10: SRGQYSREDNNCTHFPVGQSHMLLELRTAFSQVKTFFQTKDQLDNILLTDSLMQDFKGYLGCQALSEMIQFYLVEVMPQAEKHGPEIKEHLNSLGEKLKTLRMRLRRCHRFLPCENKSKAVEQVKSDFNKLQDQGVYKAMNEFDIFINCIEAYMMIKMKS",tumorigenesis,[6],tumorigenesis was decreased
